Measured values: US20210252159A1, “CONJUGATES OF CARTILAGE-HOMING PEPTIDES” (priority 2018, published 2021)

Columns and labels:
[1] = Resistance to chemical reduction (50 mM DTT, LC-MS); assay type: physicochemical; details: 50 mM DTT for 60 minutes at room temperature
Procedure: The synthetically produced peptides were then analyzed side-by-side with peptides produced in the recombinant expression system as described above in EXAMPLE 1.

[2] = Immunohistochemistry of knee and ankle sections with anti-peptide(SEQ ID NO: 105) and anti-Dex antibodies; assay type: in vivo, C57/Bl6 mice; details: mice, 100 nmol IV, three hours
Source text: Immunohistochemistry methods were developed to detect peptide(SEQ ID NO: 105) and dexamethasone in cartilage of joints using a generated rabbit polyclonal anti-peptide(SEQ ID NO: 105) antibody and a commercially available anti-Dex antibody (Abcam, ab35000). Standard immunization methods were used to generate the anti-peptide(SEQ ID NO: 105) polyclonal antibody, which increases the immunogenicity of the dosed material and are not representative of potential immunogenicity of the unmodified peptide or therapeutic candidate molecules. To produce the immunogen for peptide(SEQ ID NO: 105) antibody generation, peptide(SEQ ID NO: 105) was conjugated to keyhole limpet hemocyanin (KLH) using ImjectTMmcKLH. Peptide(SEQ ID NO: 105)-KLH was administered as part of a pool of other KLH-conjugated peptides emulsified with Freund's complete adjuvant and administered to New Zealand White Rabbits following a standard schedule. The polyclonal antibody was purified from the serum using a HiTrap® mAb Select cartridge (GE Healthcare). Western blot was used to confirm antibody binding to the peptide. […]

[3] = Comparison of joint retention time among radiolabeled peptides (QWBA, knee and IVD); assay type: in vivo; design: Peptide Signal Retention in Knee / Peptide Signal Retention in IVD: unit not given here
Procedure: Frozen carcasses were allowed to off gas hexane overnight at −20° and then embedded in chilled 2% carboxymethylcellulose (Sigma Aldrich) and sectioned sagittally at a thickness of 40 μm on an H/I Bright 8250 Cryostat (Hacker Instruments). Radioactive control guides were drilled into each block to verify even cutting depth along the length of the section. The radioactive guide consisted of ^14C-Glycine (American Radiolabeled Chemicals, “ARC”) at 0.5 uCi/ml in 0.5% BSA (Sigma Aldrich) in PBS. Sections were collected onto 4-inch wide tape (Scotch 821, ULINE) at 2-4 depths to sample approximately 30 tissues with particular focus on the knees and spine. Collected sections were freeze dried in the cryostat for 48-72 hours then mounted on sturdy paper and covered with a single protective layer of cellophane (Reynolds Food Service Film). Mounted sections were exposed to phosphor imager plates (Raytest) along with a radioactive standard Curve (1465-PL, ARC) for 7-days, scanned on a Raytest CR-35 at “25 μm sensitive” setting.
Quantification of the radioactivity detected in WBA samples was evaluated by measuring the pixel density/mm^2 (“SI”: Signal Intensity/Area−background) using AIDA Image Analyzer v 5.1 Whole Body Autoradiography Professional software (Raytest). Regions of interest (ROIs) were drawn manually around the entire visible tissue, comparing the sectioned sample to the autoradiogram. For quantification, all visible knee or IVD (intervertebral disc) tissues for one rodent across all collected sections were measured and averaged together to generate one knee or IVD value per animal. Typically were sampled 1-2 knee values (from femoral and tibial cartilage) per 1-2 sections per animal and 3-10 IVD per 1-2 sections per animal. To collect quantified values for other tissues, ROIs were drawn around blood in the heart ventricle, spinotrapezius muscle, the liver, or the kidney (including cortex and medulla) in all sections in which the tissue was observed and then averaged to yield one value per tissue per animal.
Data were presented as nmol of compound per gram of tissue. The commercial standard strips co-exposed with each WBA sample set were calibrated so that a known amount of radioactive counts per minute (CPM) per gram of tissue, determined by liquid scintillation counting (LSC), corresponded to the measured WBA SI at 11 standard strip concentration data points. The regression line of the log 10 transformed WBA signal intensity plotted against the log 10 transformed CPM/g gave a linear range of 1×10^5 to 7.5×10^7 WBA SI, corresponding to 6.3 nCi/g to 3.3 μCi/g. The log 10 concentration of radioactivity in each tissue (CPM/g) was interpolated from the standard curve, converted to linear values, and translated from CPM/g to uCi/g by interpolation against an LSC CPM to μCi standard curve. Uptake (nmol of compound/g of tissue) was determined by dividing the μCi/g tissue by the μCi/nmol specific activity of the peptide.
Peptide(SEQ ID NO: 105) was dosed at 57-60 nmol. Peptide(SEQ ID NO: 103) was dosed at 130 nmol. Peptide(SEQ ID NO: 184) was dosed at 150 nmol. […] It should be noted that detection of retention is based on an assay that detects radiolabeling of the N-terminus of each of the tested conjugates, thus decrease in signal over time may be due not only to peptide diffusion back out of the cartilage but also aminopeptidase-mediated removal of N-terminal amino acid, general peptide cleavage, or other mechanisms. Results as measured by QWBA methods described herein are shown in Tables 6 and 7 below and FIG. 11.

[4] = Rat CIA biodistribution study (QWBA); assay type: in vivo; details: CIA rats
Procedure: 50 uCi, 400 nmol of each compound was given intravenously (IV) through the tail vein and allowed to circulate 1 hour, 3 hours, or 24 hours. Rats were euthanized by CO2 asphyxiation, shaved, and frozen in dry ice chilled hexane. QWBA was performed and quantified as described.
Frozen carcasses were allowed to off gas hexane overnight at −20° and then embedded in chilled 2% carboxymethylcellulose (Sigma Aldrich) and sectioned sagittally at a thickness of 40 μm on an H/I Bright 8250 Cryostat (Hacker Instruments). Radioactive control guides were drilled into each block to verify even cutting depth along the length of the section. […]
(§1) Quantification of the radioactivity detected in WBA samples was evaluated by measuring the pixel density/mm^2 (“SI”: Signal Intensity/Area−background) using AIDA Image Analyzer v 5.1 Whole Body Autoradiography Professional software (Raytest). […] For quantification, all visible knee or IVD (intervertebral disc) tissues for one rodent across all collected sections were measured and averaged together to generate one knee or IVD value per animal. […] To collect quantified values for other tissues, ROIs were drawn around blood in the heart ventricle, spinotrapezius muscle, the liver, or the kidney (including cortex and medulla) in all sections in which the tissue was observed and then averaged to yield one value per tissue per animal. […]

[5] = Biodistribution in mice of stable peptide-TAA conjugate by whole body autoradiography (QWBA); assay type: in vivo; details: 100 nmol IV, 3 hours and 24 hours
Procedure: Peptide(SEQ ID NO: 105)-^14C-Cys-TAA (38, the radiolabeled conjugate prepared in EXAMPLE 7) (“peptide(SEQ ID NO: 105)-^14C-Cys” is disclosed as SEQ ID NO: 512) or ^14C-Cys-TAA was resuspended in 5% DMSO in water. The amount of radioactivity per μ1 of solution was measured using liquid scintillation counting (LSC). Each compound was administered intravenously to mice at a dose of 12.4 μCi (100 nmol) and allowed to circulate for the designated time intervals. The mice were then humanely euthanized and carcasses were frozen in dry ice chilled hexane. QWBA was performed and quantified as described. […]
as §1

GSGVPINVRCRGSRDCLDPCRRAGMRFGRCINSRCHCTP [peptide(SEQ ID NO: 105)]
resistance to chemical reduction [1]: very little formation of a new peak | Immunostaining with anti-peptide(SEQ ID NO: 105) antibody in articular cartilage and growth plates of knee joint sections [2]: strong positive staining | Peptide Signal Retention in IVD ([3]; 0.08 Hours): 44.42 | Peptide Signal Retention in Knee ([3]; 0.08 Hours): 91.00 | Peptide Signal Retention in IVD ([3]; 0.5 Hours): 101.41 | Peptide Signal Retention in Knee ([3]; 0.5 Hours): 102.49 | Peptide Signal Retention in IVD ([3]; 1 Hours): 100.00 | Peptide Signal Retention in Knee ([3]; 1 Hours): 100.00 | Peptide Signal Retention in IVD ([3]; 3 Hours): 106.39 | Peptide Signal Retention in Knee ([3]; 3 Hours): 72.64 | Peptide Signal Retention in IVD ([3]; 8 Hours): 81.45 | Peptide Signal Retention in Knee ([3]; 8 Hours): 42.42 | Peptide Signal Retention in IVD ([3]; 24 Hours): 36.89 | Peptide Signal Retention in Knee ([3]; 24 Hours): 22.61 | Peptide Signal Retention in IVD ([3]; 48 Hours): 19.96 | Peptide Signal Retention in Knee ([3]; 48 Hours): 9.73 | Peptide Signal Retention in IVD ([3]; 72 Hours): 13.43 | Peptide Signal Retention in Knee ([3]; 72 Hours): 8.76 | Peptide Signal Retention in IVD ([3]; 96 Hours): 9.17 | Peptide Signal Retention in Knee ([3]; 96 Hours): 5.05 | accumulation in other tissues of the body ([4]; 400 nmol IV, 1, 3, 24 hrs, except liver and kidney): minimal accumulation | signal in cartilage (whole body autoradiography) ([4]; 400 nmol IV, 1 hr, 3 hrs, 24 hrs): signal can be detected

^14C-Cys-triamicinolone acetonide [^14C-Cys-TAA, reference compound]
signal in cartilage (whole body autoradiography) [5]: no observable signal
